# Measured values reported in patent publication US9534010B2, “Stable indole-3-propionate salts of S-adenosyl-L-methionine” (HEBERT SAM-E LLC, priority 2013, dated 2017).
# How the values were obtained:
# [1] = system: alcoholic liver cirrhosis; conditions: oral SAMe, compared with a placebo treated group; cited from earlier work
# Caco-2 cells = assay: In vitro Caco-2 permeability assay (apical to basolateral); conditions: for mean A->B Papp: analyte SAMe, test compound 2 mM, A side pH 6.5, B side pH 7.4, 2 hours
# Description: The following in vitro permeability assay was conducted to determine the efficacy of certain absorption enhancers in increasing the permeability of a IPA salt of SAMe, or a pharmaceutically acceptable salt thereof, of the invention. See Stewart, B H, et al. (1995) “Comparison of intestinal permeabilities determined in multiple in vitro and in situ models: Relationship to absorption in humans,” Pharm. Res. 12:693.
# The test compound was the IPA salt of SAMe 1,4-butanedisulfonate (the product of Synthetic Example 2) (SAMeIPA). The concentration of the test compound used in the assay was 2 mM.
# The signal was optimized for each test formulation by ESI positive or negative ionization mode. An MS2 scan or a SIM scan was used to optimize the fragmenter voltage and a product ion analysis was used to identify the best fragment for analysis, and the collision energy was optimized using a product ion or MRM scan. An ionization ranking was assigned indicating the formulation's ease of ionization.
# Samples were analyzed by LC/MS/MS using an Agilent 6410 mass spectrometer coupled with an Agilent 1200 HPLC and a CTC PAL chilled autosampler, all controlled by MassHunter software (Agilent). After separation on a C18 reverse phase HPLC column (Agilent, Waters, or equivalent) using an acetonitrile-water gradient system, peaks were analyzed by mass spectrometry (MS) using ESI ionization in MRM mode.
# The permeability of SAMe and IPA were measured independently. […]
# For Apical to Basolateral (A->B) permeability, the test formulation was added to the apical (A) side and amount of permeation is determined on the basolateral (B) side; for Basolateral to Apical (B>A) permeability, the test formulation was added to the B side and the amount of permeation was determined on the A side. […]
# To verify the Caco-2 cell monolayers were properly formed, aliquots of the cell buffers were analyzed by fluorescence to determine the transport of the impermeable dye Lucifer Yellow.
# Data was expressed as apparent permeability (Papp). […]
# [2] = Storage stability at room temperature, checked by UV absorption spectra and HPLC; assay type: physicochemical; conditions: for maximum absorption peak at 420 nm (toxic degradation products of incorporated IPA): UV absorption spectra, initial and after eight months at room temperature; for SAMe degradation products by HPLC or UV absorption spectra: stored for eight months at room temperature
# From the text: Stability of the IPA salt can be assessed by the method disclosed in Bottiglieri, T. (1990), Biomed Chromatogr, 4(6):239-41.
# Ultraviolet-visible light absorption spectra were obtained for the product of Synthetic Example 1 and the product of Synthetic Example 2 (see FIG. 1 and FIG. 2, respectively). An ultraviolet-visible light absorption spectrum was also obtained at the same time for a blank sample (see FIG. 5) for control purposes.
# The product of Synthetic Example 1 and the product of Synthetic Example 2 were then stored for eight months at room temperature, after which ultraviolet-visible light absorption spectra were obtained for the stored products (see […] and FIG. 4). An ultraviolet-visible light absorption spectrum was also obtained at the same time for a blank sample (see FIG. 6) for control purposes.
# This is in stark contrast to the unstable nature of, for example, previously known salts of SAMe, such as the tosylate or 1,4-butanedisulfonate salts, the stability of which can be determined in the same manner as described herein.
Molecule,overall mortality and/or progression to liver transplant [1],mean A->B Papp (Caco-2 cells),"mean A->B Papp (Caco-2 cells; listed as S-adenosyl-L-methionine 1,4-butanedisulfonate indole-3-propionate salt)",fold increase in S-adenosyl-L-methionine permeability (Caco-2 cells; using trimethyl chitosan homopolymer as the absorption enhancer),maximum absorption peak at 420 nm (toxic degradation products of incorporated IPA) [2],SAMe degradation products by HPLC or UV absorption spectra [2]
"C[S+](CC[C@H](N)C(=O)O)C[C@H]1O[C@@H](n2cnc3c(N)ncnc32)[C@H](O)[C@@H]1O (stereo partly drawn) [SAMe, S-adenosyl-L-methionine]",12%,,,,,
"S-Adenosyl-L-methionine 1,4-butanedisulfonate indole-3-propionate [SAMeIPA]",,0.20,low,37.5 fold,no maximum absorption peaks at 420 nm were noted,No SAMe degradation products were detected
S-Adenosyl-L-methionine p-toluenesulfonate indole-3-propionate [Synthetic Example 1],,,,,no maximum absorption peaks at 420 nm were noted,No SAMe degradation products were detected
